Measured values as given in publication PMC9855432, “Novel Set of Diarylmethanes to Target Colorectal Cancer: Synthesis, In Vitro and In Silico Studies” (Biomolecules, 2022).

How the values were obtained:
human CRC HCT116 cells = experiment: MTT cell viability / IC50 on HCT116 cells; format: cell-based; details: for IC50: MTT assay, 1 to 50 µM, mean ± SEM of at least three experiments; for viability at 50 µM: HCT-116
Experimental: (§1) Cells were grown in DMEM medium for HT-29 cells and RPMI 1640 medium for HCT116 cells, supplemented with 10% FBS, 1% L-glutamine and 100 U/mL penicillin and 100 μg/mL streptomycin. Cultures were maintained in a humidified atmosphere containing 5% CO2 at 37 °C. Stock solutions of each compound were used at 10^−2 M in DMSO and then diluted in culture medium to obtain the appropriate final concentrations. […] L929 cell line is a non-cancer cell line derived from L-strain (L cells) and has been grown in the Peptinov laboratory for years. L929 cells are murine adherent fibroblasts from subcutaneous connective tissue (areolar and adipose tissues). Cells were grown in DMEM medium supplemented with 10% FBS, 1% L-glutamine and 100 U/mL penicillin and 100 µg/mL streptomycin and maintained in a humidified incubator at 37 °C, 5% CO2. When confluence is at 80%, cells are trypsinyzed for 3 min and diluted in fresh medium. Each batch of cells is kept for 15 passages before being discarded and a new batch thawed.
(§2) All compounds were tested on the metabolic activity of the cells using the MTT colorimetric assay. Briefly, cells were seeded in 96-well microplates at 8 × 10^3 cells/well for human CRC HT-29 cells and 5 × 10^3 cells/well for human CRC HCT116 cells and grown for 24 h in appropriate culture medium prior to exposure or not to compounds (6–27) with concentration ranges from 1 to 50 µM. After 48 h of treatment, MTT (5 g/L in Phosphate-buffered saline (PBS)) was added and incubated for another 3 h. The MTT was then removed from the wells and 100 µL/well of DMSO were added to dissolve formazan. The optical density was detected with a microplate reader (Thermoscientific, Multiskan FC) at 550 nm and cell viability was expressed as a percentage of each treatment condition compared to control cells. IC50 values were calculated for all compounds from the dose–response curve.

human CRC HT-29 cells [1] = experiment: MTT cell viability / IC50 on HT-29 cells; format: cell-based; details: for IC50: MTT assay, 1 to 50 µM, mean ± SEM of at least three experiments; for Cell viability (%) HT-29 / viability at 50 µM: 50 µM, MTT screening; for viability at 50 µM: HT-29
Experimental: as §1, §2

PARP = experiment: Western blot of cleaved PARP in HT-29 cells; format: cell-based, human
Experimental: Human CRC HT-29 and HCT116 cells were treated or not with the determined IC50 values of compounds (12a, 10a, 10b) for indicated times (6, 12, 24 and 48h) and then harvested with trypsin. For total protein extraction, collected samples of each condition were washed with PBS. Then, the total cell pool was centrifuged at 200× g for 5 min at 4 °C and homogenized in RIPA lysis buffer (50 mM HEPES, pH 7.5, 150 mM NaCl, 1% sodium deoxycholate, 1% NP-40, 0.1% Sodium Dodecyl Sulfate (SDS), […] of aprotinin) containing protease inhibitors according to the manufacturer’s instructions as previously described. Proteins (60 µg) were separated on 12.5% SDS-PAGE gels and transferred to polyvinylidene difluoride (PVDF) membranes. Membranes were probed with respective human antibodies against caspase-3, cleaved caspase-3, PARP and Akt, ERK, p38 MAP Kinases and its phosphorylated forms according to the manufacturer’s instructions. After incubation with appropriate secondary antibodies, blots were developed using the «Immobilon Western » substrate following the manufacturer’s protocol and G:BOX system (Syngene, Ozyme). Membranes were then reblotted with human anti-β-actin used as a loading control.
Cells were treated or not for 24 and 48 h, with IC50 values of compounds 10a, 10b and 12a, for human CRC HT-29 cells and compounds 10a and 12a for human CRC HCT116 cells. Total lysates were collected, and expression of apoptosis-related proteins was determined by Western blot analysis.

human CRC HT-29 cells [2] = experiment: DNA fragmentation, Cell Death Detection ELISA, HT-29; format: cell-based; details: treated at IC50, n-fold compared to control
Experimental: Human CRC HT-29 and HCT116 cells were treated or not with the determined IC50 values of compounds (12a, 10a, 10b) for 24 and 48 h and then harvested with trypsin. Histone release from the nucleus during apoptosis was analyzed using the Cell Death Detection ELISA^PLUS as previously described. Cytosol extracts from 10^5 cells of each condition were obtained and DNA fragmentation was measured according to the manufacturer’s protocol. Results were reported as n-fold compared to control cells.

[3] = Homo sapiens, 50 µM, 48 h, MTT screening
[4] = concentrations up to 50 µM, 48 h

Row | Structure (SMILES) | IC50 (human CRC HCT116 cells; 48 h) | IC50 (human CRC HT-29 cells [1]; 48 h) | IC50 (human CRC HCT116 cells; Homo sapiens, HCT-116, 48 h) | IC50 (human CRC HT-29 cells [1]; Homo sapiens, HT-29, 48 h) | other results
1 | COc1ccc(C(=Cc2ccccc2)c2ccccn2)cc1 [Compound 6b, 2-(1-(4-méthoxyphenyl) -2-phenylvinyl) pyridine] | > 50 µM | > 50 µM | – | – | –
2 | COc1ccc(C(=Cc2ccc(C(C)(C)C)cc2)c2ccccn2)cc1 [Compound 10b, 2-(2-(4-(tert-butyl)phenyl)-1-(4-methoxyphenyl)vinyl)pyridine] | > 50 µM | 25.2 ± 1.28 µM | – | – | Cell viability (%) HT-29 (human CRC HT-29 cells [1]; 48 h): < 50%; cleaved PARP expression (PARP; HT-29, treated at IC50, 24 h): never been expressed; cleaved PARP expression (PARP; HT-29, treated at IC50, 48 h): never been expressed; HT-29 DNA Fragmentation (Fold) (human CRC HT-29 cells [2]; 24 h): 1.24 Fold; HT-29 DNA Fragmentation (Fold) (human CRC HT-29 cells [2]; 48 h): 0.84 Fold
3 | COc1ccc(C(=Cc2ccc(C(C)C)cc2)c2ccccn2)cc1 [Compound 9a, 2-(2-(4-isopropylphenyl)-1-(4-methoxyphenyl)vinyl)pyridine] | > 50 µM | > 50 µM | – | – | –
4 | COc1ccc(C(=Cc2ccc(C(F)(F)F)cc2)c2ccccn2)cc1 [Compound 12b, 2-(1-(4-methoxyphenyl)-2-(4-(trifluoromethyl)phenyl)vinyl)pyridine] | > 50 µM | > 50 µM | – | – | –
5 | COc1ccc(C(=Cc2ccc(Cl)cc2)c2ccccn2)cc1 [Compound 14b, 2-(2-(4-chlorophenyl)-1-(4-methoxyphenyl)vinyl)pyridine] | > 50 µM | > 50 µM | – | – | –
6 | COc1ccc(C(=Cc2ccc(F)cc2)c2ccccn2)cc1 [Compound 15b, 2-(2-(4-fluorophenyl)-1-(4-methoxyphenyl)vinyl)pyridine] | > 50 µM | > 50 µM | – | – | –
7 | COc1ccc(C(=Cc2ccc(C)cc2)c2ccccn2)cc1 [Compound 7b, 2-(1-(4-methoxyphenyl)-2-(p-tolyl)vinyl)pyridine] | > 50 µM | 36.2 ± 4.56 µM | – | – | Cell viability (%) HT-29 (human CRC HT-29 cells [1]; 48 h): < 50%
8 | COc1ccc(C(Oc2ccc(C)cc2)c2ccccn2)cc1 (centres unmarked) [Compound 18, 2-((4-methoxyphenyl)(p-tolyloxy)methyl)pyridine] | – | – | > 50 µM | > 50 µM | –
9 | COc1ccc(C(Oc2ccc([N+](=O)[O-])cc2)c2ccccn2)cc1 (centres unmarked) [Compound 25, 2-((4-methoxyphenyl)(4-nitrophenoxy)methyl)pyridine] | – | – | > 50 µM | > 50 µM | –
10 | COc1ccc(C(Oc2ccc(F)cc2)c2ccccn2)cc1 (centres unmarked) [Compound 23, 2-((4-fluorophenoxy)(4-methoxyphenyl)methyl)pyridine] | – | – | > 50 µM | > 50 µM | –
11 | COc1ccc(C(=Cc2ccc(Br)cc2)c2ccccn2)cc1 [Compound 13a, 2-(2-(4-bromophenyl)-1-(4-methoxyphenyl)vinyl)pyridine] | 36.6 ± 2.94 µM | 24 ± 2.65 µM | – | – | Cell viability (%) HCT116 (human CRC HCT116 cells; 50 µM, 48 h, MTT screening): < 50%; viability at 50 µM (human CRC HT-29 cells [1]; Homo sapiens, 48 h): < 50%

Further lines, with some results ahead:

Row | IC50 (human CRC HCT116 cells; 48 h) | IC50 (human CRC HT-29 cells [1]; 48 h) | IC50 (human CRC HCT116 cells; Homo sapiens, HCT-116, 48 h) | IC50 (human CRC HT-29 cells [1]; Homo sapiens, HT-29, 48 h) | Structure (SMILES) | other results
12 | – | – | 41.5 ± 1.48 µM | 37.9 ± 1.87 µM | COc1ccc(C(Oc2ccc(Br)cc2)c2ccccn2)cc1 (centres unmarked) [Compound 22, 2-((4-bromophenoxy)(4-methoxyphenyl)methyl)pyridine] | viability at 50 µM (human CRC HCT116 cells; [3]): < 50%; antiproliferative activity HCT116 (in words) (human CRC HCT116 cells; [4]): potential antiproliferative activity; viability at 50 µM (human CRC HT-29 cells [1]; Homo sapiens, 48 h): < 50%; antiproliferative activity HT-29 (in words) (human CRC HT-29 cells [1]; [4]): potential antiproliferative activity
13 | – | – | 35.6 ± 2.08 µM | 30.3 ± 1.78 µM | COc1ccc(C(=Cc2ccccc2)c2ccccn2)cc1 [Compound 6a, 2-(1-(4-méthoxyphenyl) -2-phenylvinyl) pyridine] | viability at 50 µM (human CRC HCT116 cells; [3]): < 50%; viability at 50 µM (human CRC HT-29 cells [1]; Homo sapiens, 48 h): < 50%
14 | – | – | > 50 µM | > 50 µM | COc1ccc(C(Oc2ccccc2)c2ccccn2)cc1 (centres unmarked) [Compound 17, 2-((4-methoxyphenyl)(phenoxy)methyl)pyridine] | –
15 | – | – | > 50 µM | > 50 µM | COc1ccc(C(Oc2ccc(C(F)(F)F)cc2)c2ccccn2)cc1 (centres unmarked) [Compound 24, 2-((4-methoxyphenyl)(4-(trifluoromethyl)phenoxy)methyl)pyridine] | –
16 | – | 28.5 ± 1.82 µM | 42.7 ± 2.24 µM | < 30 µM | COc1ccc(C(=Cc2ccc(Cl)cc2)c2ccccn2)cc1 [Compound 14a, 2-(2-(4-chlorophenyl)-1-(4-methoxyphenyl)vinyl)pyridine] | viability at 50 µM (human CRC HCT116 cells; [3]): < 50%; viability at 50 µM (human CRC HT-29 cells [1]; Homo sapiens, 48 h): < 50%
17 | – | – | > 50 µM | 43.5 ± 4.91 µM | COc1ccc(C=C(c2ccc(OC)cc2)c2ccccn2)cc1 [Compound 8a, 2-(1,2-bis(4-methoxyphenyl)vinyl)pyridine] | viability at 50 µM (human CRC HT-29 cells [1]; Homo sapiens, 48 h): < 50%
18 | – | – | > 50 µM | 35 ± 1.99 µM | COc1ccc(C(=Cc2ccc(C)cc2)c2ccccn2)cc1 [Compound 7a, 2-(1-(4-methoxyphenyl)-2-(p-tolyl)vinyl)pyridine] | viability at 50 µM (human CRC HT-29 cells [1]; Homo sapiens, 48 h): < 50%
19 | – | – | > 50 µM | > 50 µM | COc1ccc(C(Oc2ccc(N(C)C)cc2)c2ccccn2)cc1 (centres unmarked) [Compound 26, 4-((4-methoxyphenyl)(pyridin-2-yl)methoxy)-N,N-dimethylaniline] | –
20 | – | – | > 50 µM | 43.43 ± 0.31 µM | COc1ccc(C(=Cc2ccc(F)cc2)c2ccccn2)cc1 [Compound 15a, 2-(2-(4-fluorophenyl)-1-(4-methoxyphenyl)vinyl)pyridine] | viability at 50 µM (human CRC HT-29 cells [1]; Homo sapiens, 48 h): < 50%
21 | – | – | > 50 µM | > 50 µM | COc1ccc(C(Oc2ccc(C(C)(C)C)cc2)c2ccccn2)cc1 (centres unmarked) [Compound 20, 2-((4-(tert-butyl)phenoxy)(4-methoxyphenyl)methyl)pyridine] | –
22 | – | – | > 50 µM | > 50 µM | COc1ccc(OC(c2ccc(OC)cc2)c2ccccn2)cc1 (centres unmarked) [Compound 19, 2-((4-methoxyphenoxy)(4-methoxyphenyl)methyl)pyridine] | –
23 | – | – | > 50 µM | > 50 µM | COc1ccc(C(=Cc2ccc(O)cc2)c2ccccn2)cc1 [Compound 11b, 4-(2-(4-methoxyphenyl)-2-(pyridin-2-yl)vinyl)phenol] | –
24 | – | – | > 50 µM | 34.9 ± 0.78 µM | COc1ccc(C(=Cc2ccc(C(C)C)cc2)c2ccccn2)cc1 [Compound 9b, 2-(2-(4-isopropylphenyl)-1-(4-methoxyphenyl)vinyl)pyridine] | viability at 50 µM (human CRC HT-29 cells [1]; Homo sapiens, 48 h): < 50%
25 | 26.1 ± 2.08 µM | > 50 µM | < 35 µM | – | COc1ccc(C(=Cc2ccc(Br)cc2)c2ccccn2)cc1 [Compound 13b, 2-(2-(4-bromophenyl)-1-(4-methoxyphenyl)vinyl)pyridine] | viability at 50 µM (human CRC HCT116 cells; [3]): < 50%
26 | – | – | > 50 µM | > 50 µM | COc1ccc(C(Oc2ccc(Cl)cc2)c2ccccn2)cc1 (centres unmarked) [Compound 21, 2-((4-chlorophenoxy)(4-methoxyphenyl)methyl)pyridine] | –
27 | – | – | > 50 µM | > 50 µM | COc1ccc(C(Oc2ccc(C(C)=O)cc2)c2ccccn2)cc1 (centres unmarked) [Compound 27, 1-(4-((4-methoxyphenyl)(pyridin-2-yl)methoxy)phenyl)ethanone] | –
